Measurements published in US10138260B2, “Compounds of phosphinanes and azaphosphinanes, a process for their preparation and pharmaceutical compositions containing them” (LES LABORATOIRES SERVIER, priority 2016, dated 2018).

Molecular target: T1, TAFIa (Homo sapiens, UniProt Q96IY4)
T1 sequence (Q96IY4 115-423): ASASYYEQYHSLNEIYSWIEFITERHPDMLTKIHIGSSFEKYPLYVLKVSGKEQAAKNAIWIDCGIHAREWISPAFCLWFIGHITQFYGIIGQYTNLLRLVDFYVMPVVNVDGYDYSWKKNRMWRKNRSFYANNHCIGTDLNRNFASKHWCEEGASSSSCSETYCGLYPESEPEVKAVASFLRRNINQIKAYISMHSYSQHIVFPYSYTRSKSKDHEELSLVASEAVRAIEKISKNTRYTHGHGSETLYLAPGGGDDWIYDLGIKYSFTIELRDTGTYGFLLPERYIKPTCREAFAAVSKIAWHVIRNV
Assay: Inhibition of TAFIa (hippuryl-Arg test)
Format: biochemical
Conditions: TAFIa 2 nM, hippuryl-arginine 5 mM, 45 minutes, relative to control containing the carrier; for inhibition at 0.01 µM: compound at 10 nM; for inhibition at 0.02 µM: compound at 20 nM
Description: Human TAFI (4 nM) is incubated with human thrombin (10 nM) and human thrombomodulin (5 nM) in the presence of calcium (10 mM). After incubation for 20 minutes, the activation reaction is stopped by addition of PPACK (1 μM final), an irreversible thrombin inhibitor.
The reactions take place in Hepes buffer (25 mM Hepes, 137 mM NaCl, 3.5 mM KCl)+0.1% bovine albumin, pH 7.4 at 28° C. and with stirring.
The test compound is added to the solution of TAFIa (2 nM) and incubated for 45 minutes in the presence of hippuryl-arginine (5 mM). The reaction is stopped by addition of hydrochloric acid (1M) neutralised subsequently with sodium hydroxide (1M), and then the mixture is buffered with disodium hydroxyphosphate (1M pH 7.4). […] The reaction mixture is stirred (vortex) and then centrifuged. The supernatant is transferred to a 96-well microplate, and the absorbance is measured using a spectrophotometer at 405 nm (Spectramax plus, Molecular Devices).
The OD value of a well containing the reagents without TAFI is subtracted from all the OD values measured. The percentage inhibition of TAFIa at a given concentration of the test compound is determined by means of the following formula: % inhibition=100−[(OD compound×100)/OD carrier]
The compounds are evaluated at 10 nM and 20 nM under the experimental conditions described above and the results are expressed as the percentage inhibition relative to a control containing the carrier in the absence of compound.

SMILES: NCCCC[C@@]1(C(=O)O)CN(Cc2ccc(O)cc2-c2ccccc2)CCP1(=O)O [Example 191, (3S)-3-(4-AMINOBUTYL)-4-HYDROXY-1-[(4-HYDROXY-2-PHENYLPHENYL)-METHYL]-4-OXO-1,4-AZAPHOSPHINANE-3-CARBOXYLIC ACID]
- inhibition at 0.01 µM: 66%
- inhibition at 0.02 µM: 83%

SMILES: NCCCC[C@@]1(C(=O)O)CN(Cc2ccc(F)cc2-c2ccncc2)CCP1(=O)O [Example 192, (3S)-3-(4-AMINOBUTYL)-1-[(4-FLUORO-2-PYRIDIN-4-YLPHENYL)METHYL]-4-HYDROXY-4-OXO-1,4-AZAPHOSPHINANE-3-CARBOXYLIC ACID]
- inhibition at 0.01 µM: 77%
- inhibition at 0.02 µM: 91%

SMILES: NCCCC[C@@]1(C(=O)O)CN(Cc2ccccc2-c2cccc(Cl)c2)CCP1(=O)O [Example 194, (3S)-3-(4-AMINOBUTYL)-1-[[2-(3-CHLOROPHENYL)PHENYL]METHYL]-4-HYDROXY-4-OXO-1,4-AZAPHOSPHINANE-3-CARBOXYLIC ACID]
- inhibition at 0.01 µM: 64%
- inhibition at 0.02 µM: 80%

SMILES: NCCCC[C@@]1(C(=O)O)CN(Cc2ccc(Cl)cc2-c2ccc(Cl)cc2)CCP1(=O)O [Example 195, (3S)-3-(4-AMINOBUTYL)-1-[[4-CHLORO-2-(4-CHLOROPHENYL)PHENYL]METHYL]-4-HYDROXY-4-OXO-1,4-AZAPHOSPHINANE-3-CARBOXYLIC ACID]
- inhibition at 0.01 µM: 74%
- inhibition at 0.02 µM: 87%

SMILES: COc1ccc(-c2ccccc2CN2CCP(=O)(O)[C@](CCCCN)(C(=O)O)C2)cn1 [Example 196, (3S)-3-(4-AMINOBUTYL)-4-HYDROXY-1-[2-(6-METHOXYPYRIDIN-3-YL)BENZYL]-4-OXO-1,4-AZAPHOSPHINANE-3-CARBOXYLIC ACID]
- inhibition at 0.01 µM: 77%
- inhibition at 0.02 µM: 91%

SMILES: NCCCC[C@@]1(C(=O)O)CN(Cc2ccccc2-c2ccc(F)cc2)CCP1(=O)O [Example 197, (3S)-3-(4-AMINOBUTYL)-1-[[2-(4-FLUOROPHENYL)PHENYL]METHYL]-4-HYDROXY-4-OXO-1,4-AZAPHOSPHINANE-3-CARBOXYLIC ACID]
- inhibition at 0.01 µM: 60%
- inhibition at 0.02 µM: 78%

SMILES: NCCCC[C@@]1(C(=O)O)CN(Cc2ccc(F)cc2-c2ccc(Cl)cc2)CCP1(=O)O [Example 198, (3S)-3-(4-AMINOBUTYL)-1-[[2-(4-CHLOROPHENYL)-4-FLUOROPHENYL]METHYL]-4-HYDROXY-4-OXO-1,4-AZAPHOSPHINANE-3-CARBOXYLIC ACID]
- inhibition at 0.01 µM: 72%
- inhibition at 0.02 µM: 91%

SMILES: NCCCC[C@@]1(C(=O)O)CN(Cc2ccccc2-c2cccc3ccccc23)CCP1(=O)O [Example 199, (3S)-3-(4-AMINOBUTYL)-4-HYDROXY-1-[(2-NAPHTHALEN-1-YLPHENYL)-METHYL]-4-OXO-1,4-AZAPHOSPHINANE-3-CARBOXYLIC ACID]
- inhibition at 0.01 µM: 54%
- inhibition at 0.02 µM: 73%

SMILES: CC(C)(C)c1ccccc1CN1CCP(=O)(O)[C@](CCCCN)(C(=O)O)C1 [Example 200, (3S)-3-(4-AMINOBUTYL)-1-[(2-TERT-BUTYLPHENYL)METHYL]-4-HYDROXY-4-OXO-1,4-AZAPHOSPHINANE-3-CARBOXYLIC ACID]
- inhibition at 0.01 µM: 28%
- inhibition at 0.02 µM: 46%

SMILES: COc1cc(-c2cc(F)ccc2CN2CCP(=O)(O)[C@](CCCCN)(C(=O)O)C2)ccc1F [Example 201, (3S)-3-(4-AMINOBUTYL)-1-[[4-FLUORO-2-(4-FLUORO-3-METHOXYPHENYL)-PHENYL]METHYL]-4-HYDROXY-4-OXO-1,4-AZAPHOSPHINANE-3-CARBOXYLIC ACID]
- inhibition at 0.01 µM: 69%
- inhibition at 0.02 µM: 84%

SMILES: NCCCC[C@@]1(C(=O)O)CN(Cc2ccccc2-c2cncc3ccccc23)CCP1(=O)O [Example 202, (3S)-3-(4-AMINOBUTYL)-4-HYDROXY-1-[(2-ISOQUINOLIN-4-YLPHENYL)-METHYL]-4-OXO-1,4-AZAPHOSPHINANE-3-CARBOXYLIC ACID]
- inhibition at 0.01 µM: 74%
- inhibition at 0.02 µM: 87%

SMILES: COc1cc(-c2ccccc2CN2CCP(=O)(O)[C@](CCCCN)(C(=O)O)C2)ccn1 [Example 203, (3S)-3-(4-AMINOBUTYL)-4-HYDROXY-1-[[2-(2-METHOXYPYRIDIN-4-YL)PHENYL]METHYL]-4-OXO-1,4-AZAPHOSPHINANE-3-CARBOXYLIC ACID]
- inhibition at 0.01 µM: 75%
- inhibition at 0.02 µM: 89%

SMILES: NCCCC[C@@]1(C(=O)O)CN(Cc2ccccc2-c2cc[nH]c(=O)c2)CCP1(=O)O [Example 204, (3S)-3-(4-AMINOBUTYL)-4-HYDROXY-4-OXO-1-[[2-(2-OXO-1H-PYRIDIN-4-YL)PHENYL]METHYL]-1,4-AZAPHOSPHINANE-3-CARBOXYLIC ACID]
- inhibition at 0.01 µM: 70%
- inhibition at 0.02 µM: 86%

SMILES: NCCCC[C@@]1(C(=O)O)CN(Cc2ccc(F)cc2-c2ccccc2Cl)CCP1(=O)O [Example 206, (3S)-3-(4-AMINOBUTYL)-1-[[2-(2-CHLOROPHENYL)-4-FLUOROPHENYL]METHYL]-4-HYDROXY-4-OXO-1,4-AZAPHOSPHINANE-3-CARBOXYLIC ACID]
- inhibition at 0.01 µM: 67%
- inhibition at 0.02 µM: 80%

SMILES: COc1cccc(-c2ccccc2CN2CCP(=O)(O)[C@](CCCCN)(C(=O)O)C2)c1OC [Example 207, (3S)-3-(4-AMINOBUTYL)-1-[[2-(2,3-DIMETHOXYPHENYL)PHENYL]METHYL]-4-HYDROXY-4-OXO-1,4-AZAPHOSPHINANE-3-CARBOXYLIC ACID]
- inhibition at 0.01 µM: 71%
- inhibition at 0.02 µM: 85%

SMILES: CS(=O)(=O)c1ccccc1-c1ccccc1CN1CCP(=O)(O)[C@](CCCCN)(C(=O)O)C1 [Example 208, (3S)-3-(4-AMINOBUTYL)-4-HYDROXY-1-[[2-(2-METHYLSULPHONYLPHENYL)-PHENYL]METHYL]-4-OXO-1,4-AZAPHOSPHINANE-3-CARBOXYLIC ACID]
- inhibition at 0.01 µM: 35%
- inhibition at 0.02 µM: 46%

SMILES: NCCCC[C@@]1(C(=O)O)CN(Cc2ccccc2-c2ccc3ccccc3c2)CCP1(=O)O [Example 209, (3S)-3-(4-AMINOBUTYL)-4-HYDROXY-1-[(2-NAPHTHALEN-2-YLPHENYL)-METHYL]-4-OXO-1,4-AZAPHOSPHINANE-3-CARBOXYLIC ACID]
- inhibition at 0.01 µM: 76%
- inhibition at 0.02 µM: 87%

SMILES: NCCCC[C@@]1(C(=O)O)CN(Cc2ccc(Cl)cc2-c2ccc(F)cc2)CCP1(=O)O [Example 210, (3S)-3-(4-AMINOBUTYL)-1-[[4-CHLORO-2-(4-FLUOROPHENYL)PHENYL]METHYL]-4-HYDROXY-4-OXO-1,4-AZAPHOSPHINANE-3-CARBOXYLIC ACID]
- inhibition at 0.01 µM: 71%
- inhibition at 0.02 µM: 79%

SMILES: NCCCC[C@@]1(C(=O)O)CN(Cc2ccc(F)cc2-c2ccc(O)cc2)CCP1(=O)O [Example 211, (3S)-3-(4-AMINOBUTYL)-1-[[4-FLUORO-2-(4-HYDROXYPHENYL)PHENYL]-METHYL]-4-HYDROXY-4-OXO-1,4-AZAPHOSPHINANE-3-CARBOXYLIC ACID]
- inhibition at 0.01 µM: 85%
- inhibition at 0.02 µM: 95%

SMILES: Cn1cc(-c2cc(F)ccc2CN2CCP(=O)(O)[C@](CCCCN)(C(=O)O)C2)cn1 [Example 212, (3S)-3-(4-AMINOBUTYL)-1-[4-FLUORO-2-(1-METHYL-1H-PYRAZOL-4-YL)BENZYL]-4-HYDROXY-4-OXO-1,4-AZAPHOSPHINANE-3-CARBOXYLIC ACID]
- inhibition at 0.01 µM: 62%
- inhibition at 0.02 µM: 86%

SMILES: NCCCC[C@@]1(C(=O)O)CN(Cc2ccc(F)cc2-c2cccs2)CCP1(=O)O [Example 213, (3S)-3-(4-AMINOBUTYL)-1-[(4-FLUORO-2-THIOPHEN-2-YLPHENYL)METHYL]-4-HYDROXY-4-OXO-1,4-AZAPHOSPHINANE-3-CARBOXYLIC ACID]
- inhibition at 0.01 µM: 83%
- inhibition at 0.02 µM: 92%

SMILES: NCCCC[C@@]1(C(=O)O)CN(Cc2ccccc2-c2cccc3cnccc23)CCP1(=O)O [Example 214, (3S)-3-(4-AMINOBUTYL)-4-HYDROXY-1-[(2-ISOQUINOLIN-5-YLPHENYL)-METHYL]-4-OXO-1,4-AZAPHOSPHINANE-3-CARBOXYLIC ACID]
- inhibition at 0.01 µM: 79%
- inhibition at 0.02 µM: 91%

SMILES: NCCCC[C@@]1(C(=O)O)CN(Cc2ccc(F)cc2-c2ccc3ccccc3c2)CCP1(=O)O [Example 215, (3S)-3-(4-AMINOBUTYL)-1-[(4-FLUORO-2-NAPHTHALEN-2-YLPHENYL)METHYL]-4-HYDROXY-4-OXO-1,4-AZAPHOSPHINANE-3-CARBOXYLIC ACID]
- inhibition at 0.01 µM: 82%
- inhibition at 0.02 µM: 91%

SMILES: NCCCC[C@@]1(C(=O)O)CN(Cc2ccc(F)cc2-c2cc3ccccc3s2)CCP1(=O)O [Example 216, (3S)-3-(4-AMINOBUTYL)-1-[[2-(1-BENZOTHIOPHEN-2-YL)-4-FLUOROPHENYL]-METHYL]-4-HYDROXY-4-OXO-1,4-AZAPHOSPHINANE-3-CARBOXYLIC ACID]
- inhibition at 0.01 µM: 71%
- inhibition at 0.02 µM: 85%

SMILES: Cn1cncc1-c1cc(F)ccc1CN1CCP(=O)(O)[C@](CCCCN)(C(=O)O)C1 [Example 217, (3S)-3-(4-AMINOBUTYL)-1-[4-FLUORO-2-(1-METHYL-1H-IMIDAZOL-5-YL)BENZYL]-4-HYDROXY-4-OXO-1,4-AZAPHOSPHINANE-3-CARBOXYLIC ACID]
- inhibition at 0.01 µM: 66%
- inhibition at 0.02 µM: 83%
